Data taken from ChEMBL document CHEMBL1201862, “PubChem BioAssay data set” (2004).
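Test compounds were applied to cells in 96-well plates for 48 hours at 5 doses. GI50 marks 50% less growth.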 The source made the active and inactive calls. Cut-off read from the data, not from the text of the source: active = GI50 up to about 1.1 µM and inactive = higher.

Assays:
Assay in all cases: inhibition of tumour cell growth, NCI panel, 48 h
786-0 = system: 786-0
OVCAR-4 = system: OVCAR-4
HOP-92 = system: HOP-92
UO-31 = system: UO-31
A498 = system: A498
PC-3 = system: PC-3
MDA-MB-231 = system: MDA-MB-231
HL-60 = system: HL-60
RXF 393 = system: RXF 393
NCI-H23 = system: NCI-H23
DU-145 = system: DU-145
TK-10 = system: TK-10
U-251 = system: U-251
UACC-62 = system: UACC-62
SK-MEL-28 = system: SK-MEL-28
M14 = system: M14
COLO 205 = system: COLO 205
ACHN = system: ACHN
OVCAR-8 = system: OVCAR-8
BT-549 = system: BT-549

| Structure (SMILES) | GI50 (786-0) | GI50 (OVCAR-4) | GI50 (HOP-92) | GI50 (UO-31) | GI50 (A498) | GI50 (PC-3) | GI50 (MDA-MB-231) | GI50 (HL-60) | GI50 (RXF 393) | GI50 (NCI-H23) | GI50 (DU-145) | GI50 (TK-10) | GI50 (U-251) | GI50 (UACC-62) | GI50 (SK-MEL-28) | GI50 (M14) | GI50 (COLO 205) | GI50 (ACHN) | GI50 (OVCAR-8) | GI50 (BT-549) |
| --- | --- | --- | --- | --- | --- | --- | --- | --- | --- | --- | --- | --- | --- | --- | --- | --- | --- | --- | --- | --- |
| O=c1c2cc([N+](=O)[O-])ccc2n2n1CCCC2 | > 100 µM (inactive) | > 100 µM (inactive) | > 100 µM (inactive) | 71.3 µM (inactive) | > 100 µM (inactive) | > 100 µM (inactive) | > 100 µM (inactive) | > 100 µM (inactive) | > 100 µM (inactive) | > 100 µM (inactive) | > 100 µM (inactive) | 24.2 µM (inactive) | > 100 µM (inactive) | > 100 µM (inactive) | > 100 µM (inactive) | > 100 µM (inactive) | > 100 µM (inactive) | > 100 µM (inactive) | > 100 µM (inactive) |  |
| C/C(=N\NC(=S)N1CCC(N2CCCCC2)CC1)c1ccccn1 | 12.7 µM (inactive) | 4.73 µM (inactive) | 2.92 µM (inactive) | 1.9 µM (inactive) | 2.37 µM (inactive) | 3.56 µM (inactive) | 1.9 µM (inactive) | 0.796 µM (active) | 1.36 µM (inactive) | 3.29 µM (inactive) | 3.72 µM (inactive) | 2.38 µM (inactive) | 3.8 µM (inactive) | 3.33 µM (inactive) | 4.12 µM (inactive) | 1.87 µM (inactive) | 2.8 µM (inactive) | 2.41 µM (inactive) | 3.21 µM (inactive) |  |
| O=C(Cn1ccnc1[N+](=O)[O-])NCc1ccc(F)cc1 | > 100 µM (inactive) | > 100 µM (inactive) | > 100 µM (inactive) | > 100 µM (inactive) | > 100 µM (inactive) |  |  | > 100 µM (inactive) | > 100 µM (inactive) | > 100 µM (inactive) |  | > 100 µM (inactive) | > 100 µM (inactive) | > 100 µM (inactive) | > 100 µM (inactive) | > 100 µM (inactive) | > 100 µM (inactive) | > 100 µM (inactive) | > 100 µM (inactive) |  |
| Cc1ccc(CCNC(=S)SCC(NC(=O)CCC(N)C(=O)O)C(=O)NCC(=O)O)cc1 (stereo unspecified) | 0.385 µM (active) | 2.99 µM (inactive) | 1.17 µM (inactive) | 1.12 µM (inactive) | 2.03 µM (inactive) |  |  | 0.51 µM (active) | 0.718 µM (active) | 2.6 µM (inactive) |  | 2.84 µM (inactive) | 1.87 µM (inactive) | 1.41 µM (inactive) | 2.75 µM (inactive) | 1.22 µM (inactive) | 2.51 µM (inactive) | 2.02 µM (inactive) | 2 µM (inactive) |  |
| C=CCCCCCCCCCP(=O)(c1ccccc1)c1ccc2c(c1)OCCOCCOCCOCCO2 (stereo unspecified) | 16.3 µM (inactive) | 11.5 µM (inactive) | > 100 µM (inactive) | 10.8 µM (inactive) | 14.2 µM (inactive) |  |  | 5.18 µM (inactive) | 14.2 µM (inactive) | 14.9 µM (inactive) |  | 18.4 µM (inactive) | 15.9 µM (inactive) | 15.7 µM (inactive) | 16.3 µM (inactive) | > 100 µM (inactive) | 15.9 µM (inactive) | 16.7 µM (inactive) | 15.9 µM (inactive) |  |
| COc1cc2c(NCCN(C)C)nc3c4cc5c(cc4ccc3c2cc1OC)OCO5 | 2.95 µM (inactive) | 3.96 µM (inactive) | 4.82 µM (inactive) | 3.36 µM (inactive) | 2.76 µM (inactive) | 5.04 µM (inactive) | 5.13 µM (inactive) | 4.23 µM (inactive) | 3.16 µM (inactive) | 3.08 µM (inactive) | 3.96 µM (inactive) | 2.72 µM (inactive) | 4.16 µM (inactive) | 4.49 µM (inactive) | 4.93 µM (inactive) | 4.03 µM (inactive) | 2.81 µM (inactive) | 0.745 µM (active) | 3.13 µM (inactive) |  |
| Cc1c2ccccc2c(C)n2c1nc1ccccc12 | 4.68 µM (inactive) |  | 12.2 µM (inactive) | 5.35 µM (inactive) | 5.42 µM (inactive) | 6.98 µM (inactive) |  | 83 µM (inactive) | 9.44 µM (inactive) | 6.93 µM (inactive) | 18.5 µM (inactive) | 13.4 µM (inactive) | 5.6 µM (inactive) | 10.2 µM (inactive) | 7.85 µM (inactive) | 9.35 µM (inactive) |  | 4.06 µM (inactive) | 4.97 µM (inactive) | 15.1 µM (inactive) |
| CC1C(O)=C(O)c2ccccc2N1O (stereo unspecified) | > 100 µM (inactive) | > 100 µM (inactive) | 31.9 µM (inactive) | > 100 µM (inactive) | > 100 µM (inactive) |  |  | 44.2 µM (inactive) | 60.4 µM (inactive) | 54.7 µM (inactive) |  | > 100 µM (inactive) | > 100 µM (inactive) | > 100 µM (inactive) | > 100 µM (inactive) | > 100 µM (inactive) | > 100 µM (inactive) | > 100 µM (inactive) | > 100 µM (inactive) |  |
| COc1ccc(COC(=O)NNC(=O)C2CSC(c3ccccc3)N2C(C)=O)cc1 (stereo unspecified) | > 100 µM (inactive) | > 100 µM (inactive) | > 100 µM (inactive) | > 100 µM (inactive) | > 100 µM (inactive) | > 100 µM (inactive) |  | > 100 µM (inactive) |  | > 100 µM (inactive) | > 100 µM (inactive) | > 100 µM (inactive) | > 100 µM (inactive) | > 100 µM (inactive) |  | > 100 µM (inactive) |  | > 100 µM (inactive) | > 100 µM (inactive) | > 100 µM (inactive) |
| CN(C)C1(C(=O)O)CC1 | > 100 µM (inactive) | > 100 µM (inactive) | > 100 µM (inactive) |  | > 100 µM (inactive) | > 100 µM (inactive) |  | > 100 µM (inactive) | > 100 µM (inactive) | > 100 µM (inactive) | > 100 µM (inactive) | > 100 µM (inactive) | > 100 µM (inactive) |  | > 100 µM (inactive) | > 100 µM (inactive) |  | > 100 µM (inactive) | > 100 µM (inactive) |  |
| CCCCCCNC(=O)CCN(C(=O)O)S(=O)(=O)c1ccc(NC(=O)c2ccccc2)cc1 | > 96.4 µM (inactive) | > 100 µM (inactive) | > 100 µM (inactive) | > 100 µM (inactive) | > 100 µM (inactive) |  |  | 35.9 µM (inactive) | > 100 µM (inactive) | > 100 µM (inactive) |  | > 100 µM (inactive) | 20 µM (inactive) | > 44.6 µM (inactive) | > 100 µM (inactive) | > 100 µM (inactive) | 24.8 µM (inactive) | > 100 µM (inactive) | > 61.2 µM (inactive) |  |
| COc1cc2c3c(n(C)c(=O)c2cc1OC)-c1cc2c(cc1/C3=C\CCCI)OCO2 | 5.32 µM (inactive) |  |  | 0.653 µM (active) | 2.38 µM (inactive) | > 53.5 µM (inactive) |  | > 47.1 µM (inactive) | 10.6 µM (inactive) | 12.2 µM (inactive) | 1.17 µM (inactive) | 0.649 µM (active) | 4.21 µM (inactive) | 4.49 µM (inactive) |  | 2.61 µM (inactive) | 18.1 µM (inactive) | 0.531 µM (active) | 1.73 µM (inactive) | 1.7 µM (inactive) |
| O=C1C2C3C=CC(C2C(=O)N1CN1CCSCC1)C1C2C(=O)N(CN4CCSCC4)C(=O)C2C31 (stereo unspecified) | > 52.4 µM (inactive) | > 100 µM (inactive) | > 75.5 µM (inactive) | > 100 µM (inactive) | > 100 µM (inactive) |  |  | 29.9 µM (inactive) | > 100 µM (inactive) | > 100 µM (inactive) |  | > 100 µM (inactive) | > 72.1 µM (inactive) | > 100 µM (inactive) | > 100 µM (inactive) | > 100 µM (inactive) | 56.5 µM (inactive) | > 77.6 µM (inactive) | > 94.2 µM (inactive) |  |
| CC1=NN(C(=O)Nc2ccc(Cl)cc2)C(=O)C2CCC(=O)N12 (stereo unspecified) | 88.7 µM (inactive) | 72.8 µM (inactive) | > 100 µM (inactive) | 61.2 µM (inactive) | > 100 µM (inactive) |  |  | 61.7 µM (inactive) | > 100 µM (inactive) | 74.1 µM (inactive) |  | > 100 µM (inactive) | > 100 µM (inactive) | 2.2 µM (inactive) | > 100 µM (inactive) | > 100 µM (inactive) | > 100 µM (inactive) | 5.73 µM (inactive) | > 100 µM (inactive) |  |
| CCOC(=O)COS(=O)(=O)C(F)(F)F | 35.4 µM (inactive) | > 100 µM (inactive) | > 100 µM (inactive) | > 100 µM (inactive) | > 100 µM (inactive) |  |  | > 100 µM (inactive) | > 100 µM (inactive) | > 100 µM (inactive) |  | > 100 µM (inactive) | > 100 µM (inactive) | > 100 µM (inactive) | > 100 µM (inactive) | > 100 µM (inactive) | 38 µM (inactive) | > 100 µM (inactive) | > 100 µM (inactive) |  |
| CN(C)CC1CC/C(=C\c2ccc(Cl)c(Cl)c2)C1=O (stereo unspecified) | 11.7 µM (inactive) | 19 µM (inactive) | 17.7 µM (inactive) | > 40.6 µM (inactive) | 30.2 µM (inactive) |  |  | 0.586 µM (active) | > 45.4 µM (inactive) | 20.6 µM (inactive) |  | 13.2 µM (inactive) | > 42.3 µM (inactive) | 17.6 µM (inactive) | 39.3 µM (inactive) | 18.9 µM (inactive) | 32.9 µM (inactive) | > 45.1 µM (inactive) | 25.6 µM (inactive) |  |
| C=C(CO)CC(/C=C(\C)CC/C=C(\C)CCl)OC(C)=O (stereo unspecified) | > 100 µM (inactive) | > 100 µM (inactive) | 5.7 µM (inactive) | > 100 µM (inactive) | > 100 µM (inactive) |  |  | > 100 µM (inactive) | > 100 µM (inactive) | > 100 µM (inactive) |  | > 100 µM (inactive) | > 100 µM (inactive) | > 100 µM (inactive) | > 100 µM (inactive) | > 100 µM (inactive) | > 100 µM (inactive) | > 100 µM (inactive) | > 100 µM (inactive) |  |
